Assay results reported in ChEMBL document CHEMBL1138055, “Tetraoxane antimalarials and their reaction with Fe(II)” (J Med Chem, 2006).
Where “and” joins values, the source holds several entries; their conditions need not be identical. Equal values may be shown once.

Key:
LOX IMVI = test: Antiproliferative activity against human LOX IMVI cell line after 48 hrs; format: functional; conditions: for CC50: read-out: LC50 (the source's name)
IGROV-1 = test: Antiproliferative activity against human IGROV1 cell line after 48 hrs; format: functional; conditions: Homo sapiens, IGROV-1, 48 h; for CC50: read-out: LC50 (the source's name)
Mus musculus [1] = species: Mus musculus; test: Intrinsic clearance in mouse liver microsomes; format: ADME, Microsome
Liver microsomes = test: Intrinsic clearance in human liver microsomes; format: ADME, Microsome
[2] = Half life in mouse liver microsomes; format: ADME, Microsome
[3] = Half life in human liver microsomes; format: ADME, Microsome
SF-539 = test: Antiproliferative activity against human SF539 cell line after 48 hrs; format: functional; conditions: SF-539, 48 h
SK-MEL-28 = test: Antiproliferative activity against human SK-MEL28 cell line after 48 hrs; format: functional; conditions: SK-MEL-28, 48 h
Plasmodium falciparum [4] = system: Plasmodium falciparum
Description: (§1) Antimalarial activity against Plasmodium falciparum D6

Plasmodium falciparum [5] = system: Plasmodium falciparum; remark: listed apart in the source
Description: (§2) Antimalarial activity against Plasmodium falciparum W2

Plasmodium falciparum [6] = system: Plasmodium falciparum; remark: listed apart in the source
Description: (§3) Antimalarial activity against Plasmodium falciparum TM91C235

PBMC [7] = test: Selectivity index, IC50 for PBMC/IC50 for Plasmodium falciparum D6; format: functional
PBMC [8] = test: Selectivity index, IC50 for PBMC/IC50 for Plasmodium falciparum W2; format: functional
PBMC [9] = test: Selectivity index, IC50 for PBMC/IC50 for Plasmodium falciparum TM91C235; format: functional
PBMC [10] = test: Selectivity index, IC50 for PBMC/LC50 for UO31 cells; format: functional
786-0 = test: Antiproliferative activity against human 786-0 cell line after 48 hrs; format: functional; conditions: 786-0, 48 h
UO-31 = test: Antiproliferative activity against human UO31 cell line after 48 hrs; format: functional; conditions: Homo sapiens, UO-31, 48 h; for CC50: read-out: LC50 (the source's name)
PBMC [11] = test: Cytotoxicity against human peripheral blood mononuclear cells; format: functional, cell-based
EKVX = test: Antiproliferative activity against human EKVX cell line after 48 hrs; format: functional; conditions: Homo sapiens, EKVX, 48 h
PBMC [12] = test: Cytotoxicity against PHA-stimulated human PBMC; format: functional, cell-based
Mus musculus [13] = test: Effect on survival of CD1 mice (Mus musculus) infected with Plasmodium berghei KBG173 at 4 mg/kg/day, peroral; format: functional; conditions: route oral
Mus musculus [14] = test: Effect on survival of CD1 mice (Mus musculus) infected with Plasmodium berghei KBG173 at 2 mg/kg/day, perorally; format: functional; conditions: route oral
Plasmodium falciparum [15] = test: microbe, parasite or virus in culture; conditions: D6
Description: as §1

Plasmodium falciparum [16] = test: microbe, parasite or virus in culture; conditions: W2
Description: as §2

Plasmodium falciparum [17] = test: microbe, parasite or virus in culture; conditions: TM91C235
Description: as §3

Vero [18] = test: Selectivity index, IC50 for VERO cells/IC50 for Plasmodium falciparum D6; format: functional
Vero [19] = test: Selectivity index, IC50 for VERO cells/IC50 for Plasmodium falciparum W2; format: functional
Vero [20] = test: Selectivity index, IC50 for VERO cells/LC50 for UO31 cells; format: functional
Mus musculus [21] = test: Effect on survival of CD1 mice (Mus musculus) infected with Plasmodium berghei KBG173 at 600 mg/kg/day, perorally; format: functional, organism-based; set-up: route oral; conditions: route oral
Mus musculus [22] = test: Effect on survival of CD1 mice (Mus musculus) infected with Plasmodium berghei KBG173 at 200 mg/kg/day, perorally; format: functional; conditions: route oral
Mus musculus [23] = test: Effect on survival of CD1 mice (Mus musculus) infected with Plasmodium berghei KBG173 at 50 mg/kg/day, perorally; format: functional; conditions: route oral
RPMI-8226 = test: Antiproliferative activity against human RPMI8226 cell line after 48 hrs; format: functional
NCI-H23 = test: Antiproliferative activity against human NCI-H23 cell line after 48 hrs; format: functional; conditions: NCI-H23, 48 h
NCI-H460 = test: Antiproliferative activity against human NCI-H460 cell line after 48 hrs; format: functional; conditions: NCI-H460, 48 h
SF-268 = test: Antiproliferative activity against human SF268 cell line after 48 hrs; format: functional; conditions: SF-268, 48 h
CAKI-1 = test: Antiproliferative activity against human CAKI1 cell line after 48 hrs; format: functional; conditions: CAKI-1, 48 h
TK-10 = test: Antiproliferative activity against human TK10 cell line after 48 hrs; format: functional; conditions: TK-10, 48 h
Vero [24] = test: Cytotoxicity against VERO cells; format: functional, cell-based; conditions: Chlorocebus sabaeus
HOP-62 = test: Antiproliferative activity against human HOP62 cell line after 48 hrs; format: functional; conditions: Homo sapiens, HOP-62, 48 h
COLO 205 = test: Antiproliferative activity against human COLO 205 cell line after 48 hrs; format: functional; conditions: Homo sapiens, COLO 205, 48 h
ACHN = test: Antiproliferative activity against human ACHN cell line after 48 hrs; format: functional; conditions: Homo sapiens, ACHN, 48 h
[25] = read-out: LC50 (the source's name)

CC(=O)O[C@H]1C[C@H]2[C@@H]([C@H](OC(C)=O)C[C@@H]3CC4(CC[C@@]32C)OOC2(CCC(C(=O)NCCN(C)C)CC2)OO4)[C@@H]2CC[C@H]([C@H](C)CCC(=O)NCCN(C)C)[C@@]12C (stereo in doubt; 11)
GI50 (LOX IMVI): 1.18 µM | TGI (LOX IMVI): 2.82 µM | CC50 (LOX IMVI): 19.9 µM | GI50 (IGROV-1): 0.9 µM | TGI (IGROV-1): 2.62 µM | CC50 (IGROV-1): 13.4 µM | CL (Mus musculus [1]): < 0.6 mL/min/g | CL (Liver microsomes): < 0.6 mL/min/g | half-life [2]: > 2 h | half-life [3]: > 2 h | GI50 (SF-539): 1.47 µM | TGI (SF-539): 2.99 µM | CC50 (SF-539; [25]): 9.93 µM | GI50 (SK-MEL-28): 1.92 µM | TGI (SK-MEL-28): 11.3 µM | CC50 (SK-MEL-28; [25]): 37 µM | IC50 (Plasmodium falciparum [4]): 0.0756 µM | IC90 (Plasmodium falciparum [4]): 0.0941 µM | IC50 (Plasmodium falciparum [5]): 0.113 µM | IC90 (Plasmodium falciparum [5]): 0.126 µM | IC50 (Plasmodium falciparum [6]): 0.0814 µM | IC90 (Plasmodium falciparum [6]): 0.11 µM

CC(=O)O[C@H]1C[C@H]2[C@@H]([C@H](OC(C)=O)C[C@@H]3CC4(CC[C@@]32C)OOC2(CCC(C(=O)Nc3ccccc3)CC2)OO4)[C@@H]2CC[C@H]([C@H](C)CCC(=O)Nc3ccccc3)[C@@]12C (stereo in doubt; 13)
Selectivity index (PBMC [7]): >33000 | Selectivity index (PBMC [8]): >18000 | Selectivity index (PBMC [9]): >25000 | Selectivity index (PBMC [10]): >392 | GI50 (786-0): 0.45 µM | LC50 (786-0): 67.9 µM | TGI (786-0): 14.2 µM | GI50 (LOX IMVI): 0.37 µM | TGI (LOX IMVI): 1.69 µM | CC50 (LOX IMVI): 7.15 µM | GI50 (UO-31): 0.05 µM | TGI (UO-31): 0.19 µM | CC50 (UO-31): 0.51 µM | CL (Mus musculus [1]): < 0.6 mL/min/g | CL (Liver microsomes): < 0.6 mL/min/g | half-life [2]: > 2 h | half-life [3]: > 2 h | IC50 (PBMC [11]): > 200 µM | GI50 (EKVX): 0.9 µM | LC50 (EKVX): > 100 µM | TGI (EKVX): > 100 µM | IC50 (PBMC [12]): > 200 µM | IC50 (Plasmodium falciparum [4]): 0.0062 µM | IC90 (Plasmodium falciparum [4]): 0.0113 µM | IC50 (Plasmodium falciparum [5]): 0.0114 µM | IC90 (Plasmodium falciparum [5]): 0.0208 µM | IC50 (Plasmodium falciparum [6]): 0.0081 µM | IC90 (Plasmodium falciparum [6]): 0.0192 µM

CC(=O)O[C@H]1C[C@H]2[C@@H]([C@H](OC(C)=O)C[C@@H]3CC4(CC[C@@]32C)OOC2(CCC(C(N)=O)CC2)OO4)[C@@H]2CC[C@H]([C@H](C)CCC(N)=O)[C@@]12C (stereo in doubt; 7)
GI50 (786-0): 1.69 µM | LC50 (786-0): 8.08 µM | TGI (786-0): 3.7 µM | GI50 (LOX IMVI): 1.85 µM | TGI (LOX IMVI): 3.95 µM | CC50 (LOX IMVI): 8.42 µM | CL (Mus musculus [1]): 1.59 mL/min/g | CL (Liver microsomes): 3.4 mL/min/g | half-life [2]: 0.633 h | half-life [3]: 0.35 h | IC50 (Plasmodium falciparum [4]): 0.011 µM | IC90 (Plasmodium falciparum [4]): 0.0173 µM | IC50 (Plasmodium falciparum [5]): 0.0171 µM | IC90 (Plasmodium falciparum [5]): 0.0344 µM | IC50 (Plasmodium falciparum [6]): 0.0118 µM | IC90 (Plasmodium falciparum [6]): 0.0567 µM

CCN(CC)CCCC(C)Nc1ccnc2cc(Cl)ccc12 (configuration not stated) [CHLOROQUINE]
Activity (Mus musculus [13]): 25.6 days | Activity (Mus musculus [14]): 12.8 days | IC90 (Plasmodium falciparum [15]): 0.0176 µM | IC90 (Plasmodium falciparum [16]): 0.491 µM | IC90 (Plasmodium falciparum [17]): 0.269 µM

CCCC(=O)CC[C@@H](C)[C@H]1CC[C@H]2[C@@H]3[C@H](OC(C)=O)C[C@@H]4CC5(CC[C@]4(C)[C@H]3C[C@H](OC(C)=O)[C@]12C)OOC1(CCCCC1)OO5
Selectivity index (Vero [18]): 823 | Selectivity index (Vero [19]): 1763 | Selectivity index (Vero [20]): 726 | Activity (Mus musculus [21]): 28 days | Activity (Mus musculus [22]): 24.4 days | Activity (Mus musculus [23]): 14.2 days | GI50 (IGROV-1): 0.19 µM | TGI (IGROV-1): 0.46 µM | CC50 (IGROV-1): 1.36 µM | GI50 (UO-31): < 0.01 µM | TGI (UO-31): < 0.01 µM | CC50 (UO-31): 0.017 µM | TGI (RPMI-8226; Homo sapiens, RPMI-8226, 48 h): 3.47 µM | CC50 (RPMI-8226; [25]): 1.28 µM and 9.37 µM | GI50 (NCI-H23): 0.61 µM | TGI (NCI-H23): 1.99 µM | CC50 (NCI-H23; [25]): 4.64 µM | GI50 (NCI-H460): 0.18 µM | TGI (NCI-H460): 0.59 µM | CC50 (NCI-H460; [25]): 2.6 µM | GI50 (SF-268): 1.57 µM | TGI (SF-268): 3.9 µM | CC50 (SF-268; [25]): 9.68 µM | GI50 (CAKI-1): 0.18 µM | TGI (CAKI-1): 0.4 µM | CC50 (CAKI-1; [25]): 0.91 µM | GI50 (TK-10): 1.67 µM | TGI (TK-10): 3.62 µM | CC50 (TK-10; [25]): 7.84 µM | IC50 (Vero [24]): 12.3 µM | GI50 (HOP-62): 0.44 µM | TGI (HOP-62): 1.72 µM | CC50 (HOP-62; [25]): 5.4 µM | GI50 (COLO 205): 1.77 µM | TGI (COLO 205): 3.72 µM | CC50 (COLO 205; [25]): 7.82 µM | GI50 (ACHN): 1.34 µM | LC50 (ACHN): 5.12 µM | TGI (ACHN): 2.62 µM | IC50 (Plasmodium falciparum [15]): 0.0148 µM | IC50 (Plasmodium falciparum [16]): 0.0068 µM
